The results in this text go back to US20200325109A1, “IMINO-UREA DERIVATIVES” (Lunan Pharmaceutical Group Corporation, priority 2017, published 2020).

The subject of one data set is LLC tumors. The experiment in a line: In vivo antitumor activity test, LLC tumors in mice. As to conditions: LLC tumors in C57BL6 mice, once per day, 21 days.
The nature of data set [1]: Effects of compounds on body weight of mice in the LLC tumor test. The conditions noted are these: LLC tumor-bearing mice.

The molecule `O=P1(N(CCCl)CCCl)NCCCO1` (stereo not shown) [CTX, cyclophosphamide, reference compound] displayed a Tumor weight with LLC tumors (CTX intraperitoneal 150 mg·kg^−1, compounds intragastric) of 0.701 ± 0.314 g. In addition, the Tumor inhibition rate with LLC tumors (from average tumor weight vs model group) was 53.7%. The “Average body weight after test” value in data set [1] (after test (21 days of administration)) is reported as 19 ± 3.3 g. Moreover, the “Average body weight before test” value in data set [1] (before test) turned out to be 22 ± 3.1 g.
